Our source for the IC50 values is US9815832B2 (priority 2013, dated 2017).

The target of this assay is human recombinant PDE4B (Homo sapiens (Human), UniProt Q07343, S133E/S654A/S659A/S661A). The settings on record: read-out: Human PDE4B FL.

Structures can show the parent of a compound that is named as a salt.

human recombinant PDE4B, sequence (Q07343 122-736 S133E/S654A/S659A/S661A): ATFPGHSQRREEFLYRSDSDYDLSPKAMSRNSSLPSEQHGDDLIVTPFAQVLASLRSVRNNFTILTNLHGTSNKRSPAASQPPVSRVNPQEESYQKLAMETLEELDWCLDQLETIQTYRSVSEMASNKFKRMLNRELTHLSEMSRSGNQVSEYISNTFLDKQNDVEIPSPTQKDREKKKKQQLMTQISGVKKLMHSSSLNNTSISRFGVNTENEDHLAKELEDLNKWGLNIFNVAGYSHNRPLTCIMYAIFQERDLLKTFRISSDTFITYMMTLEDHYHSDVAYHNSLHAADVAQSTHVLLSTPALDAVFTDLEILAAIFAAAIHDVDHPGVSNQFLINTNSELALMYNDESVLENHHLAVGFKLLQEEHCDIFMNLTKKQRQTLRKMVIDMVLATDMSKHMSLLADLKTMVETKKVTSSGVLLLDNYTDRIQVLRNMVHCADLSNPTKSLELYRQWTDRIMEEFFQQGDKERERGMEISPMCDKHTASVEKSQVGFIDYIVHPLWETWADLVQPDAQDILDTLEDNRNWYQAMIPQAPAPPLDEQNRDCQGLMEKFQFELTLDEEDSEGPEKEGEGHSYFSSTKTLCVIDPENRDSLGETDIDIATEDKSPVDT
Method: Reactions are incubated for 30 min at 25° C. The addition of 20 μL of 8 mg/mL yitrium silicate SPA beads (PerkinElmer) stops the reaction. The plates are sealed (TopSeal, PerkinElmer) and the beads are allowed to settle for 8 hrs, after which they are read on the Trilux Microbeta overnight.

Turning to `CCCNC(=O)c1nc2cccnc2n1-c1ccc(Cl)c(F)c1` [Example 6, 3-(4-Chloro-3-fluorophenyl)-N-propyl-3H-imidazo[4,5-b]pyridine-2-carboxamide], the IC50 came to 0.0381 µM.

Take `CN(C)C(=O)c1nc2cccnc2n1-c1ccc(Cl)c(F)c1` [Example 11, 3-(4-Chloro-3-fluorophenyl)-N,N-dimethyl-3H-imidazo[4,5-b]pyridine-2-carboxamide]: the IC50 is 0.405 µM.

As for `O=C(c1nc2cccnc2n1-c1cc(F)c(Cl)cc1F)N1CCC1` [Example 12, Azetidin-1-yl[3-(4-chloro-2,5-difluorophenyl)-3H-imidazo[4,5-b]pyridin-2-yl]methanone, trifluoroacetate salt], the IC50 came out at 0.0994 µM.

Consider `CCCNC(=O)c1nc2cccnc2n1-c1ccc(Cl)cc1` [Example 13, 3-(4-Chlorophenyl)-N-propyl-3H-imidazo[4,5-b]pyridine-2-carboxamide], for which the IC50 is 0.944 µM.

`Cn1ccc(NC(=O)c2nc3cccnc3n2C2CCCC2)n1` [Example 14, 3-Cyclopentyl-N-(1-methyl-1H-pyrazol-3-yl)-3H-imidazo[4,5-b]pyridine-2-carboxamide]: the IC50 came to 0.822 µM.

`O=C(NC1CC1)c1nc2cccnc2n1C1CCOCC1` [Example 15, N-Cyclopropyl-3-(tetrahydro-2H-pyran-4-yl)-3H-imidazo[4,5-b]pyridine-2-carboxamide]: the IC50 was found to be 1.73 µM.

Turning to `O=C(c1nc2cccnc2n1-c1ccc(Cl)cc1)N1CCC1` [Example 16, Azetidin-1-yl[3-(4-chlorophenyl)-3H-imidazo[4,5-b]pyridin-2-yl]methanone], the IC50 came out at 0.196 µM.

`NC(=O)c1nc2cccnc2n1-c1ccc(Cl)c(F)c1` [Example 17, 3-(4-Chloro-3-fluorophenyl)-3H-imidazo[4,5-b]pyridine-2-carboxamide]: the IC50 was 8.51 µM.

In the case of `Cc1ccc(-n2c(C(=O)N3CCC3)nc3cccnc32)cc1F` [Example 18, Azetidin-1-yl[3-(3-fluoro-4-methylphenyl)-3H-imidazo[4,5-b]pyridin-2-yl]methanone], the IC50 came to 0.0487 µM.

Regarding `Cc1ccc(-n2c(C(=O)N3CC(F)C3)nc3cccnc32)cc1F` [Example 19, (3-Fluoroazetidin-1-yl)[3-(3-fluoro-4-methylphenyl)-3H-imidazo[4,5-b]pyridin-2-yl]methanone], the IC50 was 0.281 µM.

As to `N#Cc1c(F)cc(-n2c(C(=O)NC3CC3)nc3cccnc32)cc1F` [Example 20, 3-(4-Cyano-3,5-difluorophenyl)-N-cyclopropyl-3H-imidazo[4,5-b]pyridine-2-carboxamide], the IC50 was 0.0138 µM.

With `O=C(c1nc2cccnc2n1-c1ccc(Cl)c(F)c1)N1CC(F)C1` [Example 21, [3-(4-Chloro-3-fluorophenyl)-3H-imidazo[4,5-b]pyridin-2-yl](3-fluoroazetidin-1-yl)methanone], the IC50 is 0.0426 µM.

`O=C(c1nc2cccnc2n1-c1ccc(Cl)cc1F)N1CCC1` [Example 22, Azetidin-1-yl[3-(4-chloro-2-fluorophenyl)-3H-imidazo[4,5-b]pyridin-2-yl]methanone]: the IC50 was 0.273 µM.

Consider `O=C(NC1CC1)c1nc2cccnc2n1-c1ccc(Cl)cc1F` [Example 23, 3-(4-Chloro-2-fluorophenyl)-N-cyclopropyl-3H-imidazo[4,5-b]pyridine-2-carboxamide], for which the IC50 came out at 0.632 µM.

On to `Cn1ccc(NC(=O)c2nc3cccnc3n2-c2ccc(Cl)cc2)n1` [Example 24, 3-(4-Chlorophenyl)-N-(1-methyl-1H-pyrazol-3-yl)-3H-imidazo[4,5-b]pyridine-2-carboxamide], for which the IC50 came out at 0.211 µM.

As for `O=C(c1nc2cccnc2n1-c1ccc(Cl)cc1F)N1CC(F)C1` [Example 25, [3-(4-Chloro-2-fluorophenyl)-3H-imidazo[4,5-b]pyridin-2-yl](3-fluoroazetidin-1-yl)methanone], the IC50 was 0.91 µM.

In the case of `Cc1cc(Cl)ccc1-n1c(C(=O)NC2CC2)nc2cccnc21` [Example 26, 3-(4-Chloro-2-methylphenyl)-N-cyclopropyl-3H-imidazo[4,5-b]pyridine-2-carboxamide], the IC50 was determined as 0.319 µM.

`Cc1ccc(-n2c(C(=O)NC3CC3)nc3cccnc32)cc1` [Example 29, N-Cyclopropyl-3-(4-methylphenyl)-3H-imidazo[4,5-b]pyridine-2-carboxamide]: the IC50 stood at 0.225 µM.

In the case of `O=C(NC1CC1)c1nc2cccnc2n1-c1cc(F)c(F)c(F)c1` [Example 30, N-Cyclopropyl-3-(3,4,5-trifluorophenyl)-3H-imidazo[4,5-b]pyridine-2-carboxamide, trifluoroacetate salt], the IC50 worked out at 0.00577 µM.

For `Cc1cc(Cl)ccc1-n1c(C(=O)N2CCC2)nc2cccnc21` [Example 34, Azetidin-1-yl[3-(4-chloro-2-methylphenyl)-3H-imidazo[4,5-b]pyridin-2-yl]methanone], the IC50 worked out at 0.399 µM.

For the compound `Cc1cc(Cl)ccc1-n1c(C(=O)N2CC(F)C2)nc2cccnc21` [Example 35, [3-(4-Chloro-2-methylphenyl)-3H-imidazo[4,5-b]pyridin-2-yl](3-fluoroazetidin-1-yl)methanone], the IC50 was 1.13 µM.

On to `O=C(NC1CC1)c1nc2cccnc2n1-c1cncc(Cl)c1` [Example 37, 3-(5-Chloropyridin-3-yl)-N-cyclopropyl-3H-imidazo[4,5-b]pyridine-2-carboxamide], for which the IC50 was 0.409 µM.

With `O=C(c1nc2cccnc2n1-c1cncc(Cl)c1)N1CCC1` [Example 38, Azetidin-1-yl[3-(5-chloropyridin-3-yl)-3H-imidazo[4,5-b]pyridin-2-yl]methanone], the IC50 amounted to 0.466 µM.

For `N#Cc1ccc(-n2c(C(=O)NC3CC3)nc3cccnc32)cn1` [Example 39, 3-(6-Cyanopyridin-3-yl)-N-cyclopropyl-3H-imidazo[4,5-b]pyridine-2-carboxamide], the IC50 came out at 0.363 µM.

With `N#Cc1ccc(-n2c(C(=O)NC3CC3)nc3cccnc32)cc1` [Example 42, 3-(4-Cyanophenyl)-N-cyclopropyl-3H-imidazo[4,5-b]pyridine-2-carboxamide], the IC50 is 0.276 µM.

As to `O=C(NC1CC1)c1nc2cccnc2n1-c1ccc(F)cc1F` [Example 43, N-Cyclopropyl-3-(2,4-difluorophenyl)-3H-imidazo[4,5-b]pyridine-2-carboxamide], the IC50 is 0.927 µM.

`Cc1ccc(F)cc1-n1c(C(=O)NC2CC2)nc2cccnc21` [Example 44, N-Cyclopropyl-3-(5-fluoro-2-methylphenyl)-3H-imidazo[4,5-b]pyridine-2-carboxamide]: the IC50 was 1.66 µM.

With `O=C(NC1CC1)c1nc2cccnc2n1C1Cc2ccccc2C1` [Example 47, N-Cyclopropyl-3-(2,3-dihydro-1H-inden-2-yl)-3H-imidazo[4,5-b]pyridine-2-carboxamide], the IC50 was found to be 1.26 µM.

Take `COc1cc(-n2c(C(=O)NC3CC3)nc3cccnc32)ccc1C` [Example 50, N-Cyclopropyl-3-(3-methoxy-4-methylphenyl)-3H-imidazo[4,5-b]pyridine-2-carboxamide]: the IC50 came out at 0.339 µM.

As to `N#Cc1cccc(-n2c(C(=O)NC3CC3)nc3cccnc32)c1` [Example 53, 3-(3-Cyanophenyl)-N-cyclopropyl-3H-imidazo[4,5-b]pyridine-2-carboxamide], the IC50 came out at 0.287 µM.

For `COc1cc(-n2c(C(=O)NC3CC3)nc3cccnc32)ccc1F` [Example 55, N-Cyclopropyl-3-(4-fluoro-3-methoxyphenyl)-3H-imidazo[4,5-b]pyridine-2-carboxamide], the IC50 turned out to be 0.304 µM.

As for `O=C(NC1CC1)c1nc2cccnc2n1-c1ccccc1` [Example 57, N-Cyclopropyl-3-phenyl-3H-imidazo[4,5-b]pyridine-2-carboxamide], the IC50 amounted to 1.16 µM.

As to `COc1ccc(-n2c(C(=O)NC3CC3)nc3cccnc32)cc1` [Example 58, N-Cyclopropyl-3-(4-methoxyphenyl)-3H-imidazo[4,5-b]pyridine-2-carboxamide], the IC50 was determined as 0.506 µM.

For `Cc1ccc(-n2c(C(=O)NC3CC3)nc3cccnc32)c(C)c1` [Example 59, N-Cyclopropyl-3-(2,4-dimethylphenyl)-3H-imidazo[4,5-b]pyridine-2-carboxamide], the IC50 came out at 1.02 µM.

As to `Cc1cc(F)ccc1-n1c(C(=O)NC2CC2)nc2cccnc21` [Example 60, N-Cyclopropyl-3-(4-fluoro-2-methylphenyl)-3H-imidazo[4,5-b]pyridine-2-carboxamide], the IC50 came out at 1.2 µM.

Turning to `O=C(NC1CC1)c1nc2cccnc2n1-c1ccc2c(c1)COC2` [Example 61, N-Cyclopropyl-3-(1,3-dihydro-2-benzofuran-5-yl)-3H-imidazo[4,5-b]pyridine-2-carboxamide], the IC50 is 1.58 µM.

Turning to `O=C(NC1CC1)c1nc2cccnc2n1-c1ccc(F)c(F)c1` [Example 62, N-Cyclopropyl-3-(3,4-difluorophenyl)-3H-imidazo[4,5-b]pyridine-2-carboxamide], the IC50 was 0.0349 µM.

Consider `O=C(NC1CC1)c1nc2cccnc2n1-c1cc(Cl)cc(Cl)c1` [Example 63, N-Cyclopropyl-3-(3,5-dichlorophenyl)-3H-imidazo[4,5-b]pyridine-2-carboxamide], for which the IC50 turned out to be 0.068 µM.

Turning to `O=C(NC1CC1)c1nc2cccnc2n1-c1ccc2c(c1)CCC2` [Example 64, N-Cyclopropyl-3-(2,3-dihydro-1H-inden-5-yl)-3H-imidazo[4,5-b]pyridine-2-carboxamide], the IC50 was found to be 0.206 µM.

On to `O=C(NC1CC1)c1nc2cccnc2n1-c1cccc(F)c1` [Example 65, N-Cyclopropyl-3-(3-fluorophenyl)-3H-imidazo[4,5-b]pyridine-2-carboxamide], for which the IC50 came to 0.188 µM.

As to `Cc1ccc(-n2c(C(=O)NC3CC3)nc3cccnc32)c(F)c1` [Example 67, N-Cyclopropyl-3-(2-fluoro-4-methylphenyl)-3H-imidazo[4,5-b]pyridine-2-carboxamide], the IC50 was found to be 0.619 µM.

Consider `Cc1cccc(-n2c(C(=O)NC3CC3)nc3cccnc32)c1` [Example 70, N-Cyclopropyl-3-(3-methylphenyl)-3H-imidazo[4,5-b]pyridine-2-carboxamide], for which the IC50 was 0.421 µM.
